Measurements: patent US20120065261A1, “Creatine compositions for skin treatment” (Avicena Group, Inc., priority 2006, published 2012)

Columns and labels:
human dermal fibroblasts = test: Mitochondrial metabolism in human dermal fibroblast cultures (MTT assay); format: cell-based; settings: for inhibition of mitochondrial metabolism / stimulatory effect on mitochondrial metabolism / stimulation of mitochondrial metabolism: freshly prepared; for inhibition of mitochondrial metabolism: 100 μg/mL and 1000 μg/mL; for stimulatory effect on mitochondrial metabolism: concentrations tested; for effect on mitochondrial metabolism: preincubated solutions (pH 4.0, five days)
Experimental: The purpose of this assay was to determine the effect creatine ascorbate, creatine monohydrate and creatine pyruvate on the mitochondrial metabolism on the entire cell culture using an MTT assay. The MTT assay measures the activity of succinate dehydrogenase, a key enzyme in the respiratory electron transport chain in mitochondria.
Two sets of aqueous solutions of 10 mg/mL of creatine ascorbate, creatine monohydrate, creatine pyruvate, ascorbic acid and magnesium ascorbyl phosphate were prepared in Type I water. The first set of solutions were prepared immediately before being added to cell cultures. The second set of solutions were preincubated at pH 4.0 (±0.1) five days, then the solutions were lyophilized and the substrates were redissolved in water at 10 mg/mL prior to being added to the cell cultures. Normal human dermal fibroblasts (passage 5, lot number 7F1254, Cambrex, Walkersville, Md.) were seeded in a 96-well plate in phenol red-free DMEM medium (high glucose) containing 2.5% fetal calf serum at 2500 cells per well and test materials, both freshly prepared solutions and preincubated solutions, were added 24 hours later. At the end of the incubation period MTT (3-(4,5-dimethylthiazol-2-yl)-2,5-diphenyltetrazolium bromide) was added to the cell cultures and incubation was pursued for an additional three hours. Culture media were then discarded, the cells were rinsed and the intracellular MTT reduction product, formazan, was solubilized in ethanol/acetic acid. The colorimetric signal proportional to the mitochondrial activity in the cell cultures was measured with a microplate spectrophotometer at 570 nm. For references describing this method, see Berridge et al. “Arch. Biochem. Biophys.” 303:474-482 (1993) and Murimaki et al. “Biochem. Pharmacol.” 44:2191-2197 (1992).

[1] = test system: p53 expression in human dermal fibroblasts; test: p53 expression induced by UVB irradiation of human dermal fibroblasts (sandwich ELISA); format: cell-based; settings: 50 μg/ml; UVB 0.15 mW/cm^2; 4 hours accumulation
Experimental: Confluent human dermal fibroblasts were trypsinized, counted and plated at 750,000 cells/well in eight 6-well plates in phenol-free DMEM medium (4 g/L glucose) supplemented with 5% serum. After three hours, creatine ascorbate, creatine monohydrate, creatine pyruvate, ascorbic acid and magnesium ascorbyl phosphate in a concentration of 50 μg/ml were added and cells were incubated overnight at 37° C. in 5% CO2 atmosphere. After 24 hours, p53 protein was induced by UVB irradiation at 0.15 mW/cm^2 for […] and was allowed to accumulate for 4 hours. The cells were then lyzed and total p53 was quantified by sandwich ELISA. The p53 values were standardized with regard to total protein values determined with Bradford reagent. For a description of this assay, see Carlisle et al. “Toxicological Sciences” 55:60 (2000).

[2] = test system: Clostridium collagenase IV; test: Metalloproteinase (collagenase) activity, Enzcheck kit with quenched fluorescent gelatin; format: biochemical; settings: after incubation of 60 minutes
Experimental: Metalloproteinase (collagenase) activity was measured with Enzcheck kit from Molecular Probes using quenched fluorescent gelatin and Clostridium collagenase IV, a generic collagenase. Creatine ascorbate, creatine monohydrate, creatine pyruvate, ascorbic acid and magnesium ascorbyl phosphate, in concentrations of 1000 μg/mL, 100 μg/mL and 10 μg/mL, were incubated in the presence of a collagenase substrate (quenched fluorescing-linked gelatin) and in the presence of the proteolytic enzyme. Phenantroline, a potent metalloproteinase inhibitor was used as a positive control. The kinetics of the release of the digested, fluorescent gelatin were measured at excitation/emission wavelengths of 485/530 nm.

[3] = Stability of aqueous solutions at pH 4.0 (HPLC); format: physicochemical; settings: 10 mg/mL, pH 4.0, 5 days at room temperature
Experimental: Aqueous solutions of 10 mg/mL of creatine ascorbate, creatine monohydrate, creatine pyruvate, ascorbic acid and magnesium ascorbyl phosphate were prepared in Type I water and brought to pH 4.0 (±0.1) by adding acetic acid (creatine ascorbate, creatine monohydrate and magnesium ascorbyl phosphate) or sodium hydroxide (ascorbic acid and creatine pyruvate). The solutions were incubated for 5 days at room temperature and were subsequently lyophilized, redissolved within 60 minutes of analysis and analyzed by isocratic HPLC on a C18 RF column (250 mm×4.6 mm) at 1 mL/min.

[4] = test system: type I collagen levels in human dermal fibroblasts; test: Type I collagen in human dermal fibroblast conditioned medium (sandwich ELISA); format: cell-based; settings: for levels of type I collagen: freshly prepared solutions
Experimental: Normal human dermal fibroblasts (passage 5, lot number 7F1245, Cambrix, Walkersville, Md.) were seeded in a 96-well plate in DMEM medium (high glucose) containing 5% fetal calf serum and grown to late subconfluent stage. Two sets of aqueous solutions of 10 mg/mL of creatine ascorbate, creatine monohydrate, creatine pyruvate, ascorbic acid and magnesium ascorbyl phosphate were prepared in Type I water. The first set of solutions were prepared immediately before being added to cell cultures. The second set of solutions were preincubated at pH 4.0 (±0.1) five days, then the solutions were lyophilized and the substrates were redissolved in water at 10 mg/mL prior to being added to the cell cultures. Both the freshly prepared solutions and the solutions of preincubated test materials were administered to the cells, and cell culture conditioned media was harvested 5 days after the start of the experiment and tested for type I collagen by sandwich ELISA using affinity purified antibodies, followed by streptavidin-avidin-HRP conjugate and ABTS, according to standard ELISA protocol. The colorimetric signal proportional to collagen content was measured with a microplate spectrophotometer at 405 nm. For references describing this method, see Dobek et al. “J. Dermatol. Sci.” 8:18 (1994) and Zhao et al. “Phytomedicine” 12:132 (2005).

Mushroom tyrosinase = test: Tyrosinase activity in vitro (L-Dopa substrate); format: biochemical; settings: for inhibition of tyrosinase activity compared to the control: 5 μg/mL
Experimental: Tyrosinase activity was measured according to the method described by Pomerantz “Biochem. Biophys. Res. Commun.” 16(2):188-194 (1964). Mushroom tyrosinase stock solution was prepared in PBS at 2000 U/mL and stored at […] in 1 mL aliquots. Final concentration was 5 U/well (25 U/mL). Creatine ascorbate, creatine monohydrate, creatine pyruvate, ascorbic acid and magnesium ascorbyl phosphate were dissolved in PBS and further dilutions were made with Type I water. L-Dopa stock solution was 20 mM. The tyrosinase substrate was prepared in PBS. The assays were performed in a 96-well microtiter plates and read at 490 nm.

[5] = test system: UV-induced lipid peroxidation; test: UV-induced lipid peroxidation of lecithin dispersions (TBARS); format: biochemical; settings: 500 μg/mL; UVB irradiation 3 hours
Experimental: Test materials were added to dispersions of lecithin (a natural phospholipid) and irradiated with UVB light (11,000 μW/cm^2 at the source). After 3 hours, trichloroacetic acid and thiobarbituric acids were added and the concentration of Thiobarbituric Acid Reactive Substance (TBARS), such as malondialdehyde, was measured spectroscopically (malonaldehyde is a breakdown product generated spontaneously from oxidized lipid) at 550 nm using an UV microplate reader. For references describing this method, see Pelle et al. “Arch. Biochem. Biophys.” 283:234-40 (1990); Wang et al. “J. Ethnopharmacol.” 82:169-175 (2002).

[6] = highest concentration, 1000 μg/mL

| Compound | inhibition of mitochondrial metabolism (human dermal fibroblasts) | stimulatory effect on mitochondrial metabolism (human dermal fibroblasts) | effect on p53 expression induced by UVB irradiation [1] | inhibition of collagenase activity compared to the control [2] | loss of the absorbance peak / decrease of absorption [3] [%] | levels of type I collagen ([4]; 10 μg/mL and 100 μg/mL) | levels of type I collagen [4, 6] | effect on mitochondrial metabolism (human dermal fibroblasts) | inhibition of tyrosinase activity compared to the control (Mushroom tyrosinase) | also measured |
| --- | --- | --- | --- | --- | --- | --- | --- | --- | --- | --- |
| O=C1O[C@H]([C@@H](O)CO)C(O)=C1O [ascorbic acid, reference compound] | inhibited mitochondrial metabolism | did not have a stimulatory effect | no effect | 39% | 28 |  |  |  |  | inhibitory effect on mitochondrial metabolism (human dermal fibroblasts; preincubated, concentration not given): 24% |
| CN(CC(=O)O)C(=N)N.O [creatine monohydrate] |  |  | significantly inhibited | Neither creatine monohydrate nor magnesium ascorbyl phosphate showed any inhibitory activity |  | moderately increased | better than creatine ascorbate and ascorbic acid | stimulated mitochondrial metabolism, although not to the extent of the freshly prepared creatine monohydrate |  | stimulation of mitochondrial metabolism (human dermal fibroblasts; 10 μg/mL): 0%; stimulation of mitochondrial metabolism (human dermal fibroblasts; 100 μg/mL): 15%; stimulation of mitochondrial metabolism (human dermal fibroblasts; 1000 μg/mL): 28% |
| O=C1O[C@H]([C@@H](O)CO)C([O-])=C1OP(=O)([O-])[O-].O=C1O[C@H]([C@@H](O)CO)C([O-])=C1OP(=O)([O-])[O-].[Mg+2].[Mg+2].[Mg+2] [magnesium ascorbyl phosphate, reference compound] |  | greatest stimulatory activity | significantly inhibited | Neither creatine monohydrate nor magnesium ascorbyl phosphate showed any inhibitory activity |  |  |  | exhibited stimulation |  | levels of type I collagen ([4]; all concentrations, 5 days): large increase; stimulation of type I collagen ([4]; results of both assays (fresh and preincubated)): strong stimulation |
| creatine ascorbate | inhibited mitochondrial metabolism | did not have a stimulatory effect | significantly inhibited | 11.5% |  | significantly increased | significantly lower | superior to preincubated ascorbic acid | 26% | tyrosinase inhibitory activity compared with reference substances (Mushroom tyrosinase): lower than the activity of ascorbic acid and was similar to the activity of magnesium ascorbyl phosphate; inhibitory effect on the tyrosinase activity (Mushroom tyrosinase; 500 μg/mL and 50 μg/mL): significant inhibitory effect; inhibition of lipid peroxidation [5]: 21%; stimulation of type I collagen compared with reference substances ([4]; 100 μg/mL): comparable to that of magnesium ascorbyl phosphate and better than ascorbic acid; stimulation of type I collagen levels above the non-treated control (water) ([4]; dose-dependent, conclusion of both assays (fresh and preincubated)): about 50%; degradation in aqueous solution [3]: minor to no degradation |
| creatine pyruvate | 17% |  | significantly inhibited | 27% | 42 | moderately increased | better than creatine ascorbate and ascorbic acid | not to be inhibitory | no inhibition | inhibition of tyrosinase activity (Mushroom tyrosinase; 50 μg/mL): 10%; inhibition of tyrosinase activity (Mushroom tyrosinase; 500 μg/mL): 100% |
